Holding throughout (assay): inhibition of tumour cell growth, NCI panel, 48 h
Test [1] has as its system ACHN renal.
In test [2] the test system is CCRF-CEM leukemia.
For test [3], the system named is LOX IMVI melanoma.
Test [4] has as its system NCI-H23 lung.
The test system of test [5] is OVCAR-3 ovarian.
Test [6] concerns OVCAR-8 ovarian.
Test [7] relates to RXF 393 renal.
Test [8] concerns UACC-62 melanoma.
Test [9] relates to A498 renal.
Test [10] has as its system EKVX NSCLC.
Test [11] concerns MDA-MB-435.
Test [12] deals with PC-3 prostate.

The values that follow come from PubChem BioAssay (NCI).

SMILES strings stand for the structures.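 Method: 48-hour compound exposure of cells in 96-well plates, five concentrations, linear interpolation of endpoints. Abbreviation: GI50, concentration required for 50% inhibition of growth. The concentration for full growth arrest is given as TGI.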 Bounds are passed on as bounds.

For the compound `N#CC(NNC(=O)c1ccccc1O)c1ccccc1O` (stereo unspecified), the TGI in test [1] was > 100 µM; in [2], > 100 µM; in test [3], 97.3 µM; in test [4], > 100 µM; in test [5] it was > 100 µM; in test [6] it was > 100 µM. Besides, the TGI is > 100 µM in [7] and 16.9 µM in [8].
Take `O[C@@H]1CCCCN1Cc1cc2cc3c(cc2c2cc(OCc4ccccc4)ccc12)OCO3`: the GI50 is 1.41 µM in test [9]; 1.47 µM in test [1]; 0.176 µM in test [2]; 2.01 µM in test [10]; 1.63 µM in test [11]; 1.5 µM in [5]. For the same compound, the GI50 in test [6] is 1.19 µM; in test [8], 1.89 µM. Moreover, the TGI in test [9] turned out to be 2.75 µM; in [1] it was 2.79 µM; in test [2], 4.61 µM; in test [10], 3.97 µM; in [11], 3.06 µM; in test [5], 2.95 µM. The values for the TGI in [6] and in test [8] were 3.03 µM and 3.46 µM, respectively.
Turning to `COc1ccc2c(c1)SC1=Nc3sc4cc(OC)ccc4[n+]3CN12`, the TGI in [1] is > 100 µM; in [2], > 100 µM; in test [10], > 100 µM; in [11], > 100 µM; in test [4] it was > 100 µM; in [5], 21.5 µM. Further, the TGI in test [6] is > 100 µM; in test [12], > 100 µM; in test [8], 42.4 µM.
Consider `N#CC(C#N)=CNC(=S)Nc1ccc(S(=O)(=O)Nc2nccs2)cc1`, for which the TGI in [9], in test [1], in test [10], in test [3], in [11] and in [4] was > 100 µM throughout. The TGI in [5], in test [6], in [7] and in test [8] was > 100 µM each time.
Regarding `O=[N+]([O-])c1ccc(-c2ccc([C@H]3CC(c4cc(F)c(Cl)cc4Cl)=NN3)o2)cc1`, the TGI in test [9] is > 100 µM; in test [1], > 100 µM; in test [2], 35.1 µM; in [10], > 100 µM; in test [3] it was > 100 µM; in [11] it was > 100 µM. The TGI in [4] is 32.9 µM; in test [5], > 100 µM; in [6] it was > 100 µM; in test [7] it was > 100 µM; in [8], > 100 µM.
`CSc1cnc2ccccc2c1Sc1cn(C)c2ccccc2c1=O`: the TGI is > 100 µM in [9]; > 100 µM in test [1]; > 100 µM in test [2]; > 100 µM in test [10]; > 100 µM in [3]; 65.7 µM in [4]. Moreover, the TGI in test [5] is 95.5 µM; in test [6], 45 µM; in [7] it was > 100 µM; in [8], > 100 µM.
Turning to `Nc1cc2c(C3OC(CO)C(O)C3O)[nH]nc2c(=S)[nH]1` (stereo unspecified), the TGI in [9], in test [1], in test [2], in test [10], in test [4] and in [6] was > 100 µM each time. For the same compound, the TGI in [7] and in test [8] was > 100 µM each time.
Consider `CS(=O)(=O)Sc1ccc(Cl)cc1`, for which the TGI is 7.48 µM in test [9]; 8.89 µM in test [2]; 18.3 µM in test [10]; 11.5 µM in test [3]; 27.7 µM in test [4]; 19.3 µM in [5]. For the same compound, the values for the TGI in [6] and in test [7] were 21.8 µM and 20.8 µM, respectively.
As for `O=c1cc(O)c1=O`, the TGI in [9], in [1], in test [2], in [10], in test [3] and in [11] was > 100 µM each time. For the same compound, the TGI in test [4], in test [5], in test [6], in [12] and in test [8] was > 100 µM in each case.
As to `C/C(=C/C(=O)N(C)c1ccccc1Cl)O[Si](C(C)C)(C(C)C)C(C)C`, the TGI in test [10] was 75.3 µM; in test [3] it was 33.2 µM; in [11], > 100 µM; in test [4], 62.2 µM; in test [5], 33.5 µM; in test [6], 47 µM. The TGI in test [7] was found to be 34.5 µM.
For the compound `O=C(c1ccccc1)N1N=C(C(F)(F)F)CC1(O)C(F)(F)F` (stereo unspecified), the TGI in test [9], in test [1], in test [2], in test [10], in test [3] and in test [11] was > 100 µM throughout. The TGI in test [4], in [5], in [6] and in test [12] was > 100 µM throughout.
Consider `CSc1ccc(/C=C2\N=C(c3ccccc3)N(NC(=O)c3c(Cl)c(Cl)c(Cl)c(Cl)c3-c3nc4ccccc4[nH]3)C2=O)cc1`, for which the TGI in [9] is 80.3 µM; in [1], > 100 µM; in [2], > 100 µM; in test [10] it was > 100 µM; in test [3], > 100 µM; in test [11], 19.7 µM. The TGI in [4] was 83 µM; in test [5], > 100 µM; in test [6] it was > 100 µM; in [12] it was > 100 µM; in test [8] it was 59 µM.
For the compound `COc1ccc(N(c2ccc(C#N)cc2)c2ccc(C#N)cc2)cc1`, the TGI in [9], in test [1], in [2], in test [10], in test [3] and in test [11] was > 100 µM throughout. Further, the TGI in test [4], in test [5], in [6], in [12] and in test [8] was > 100 µM each time.
With `COC(=O)C(Cc1ccc2c(c1)OCO2)(NC(=O)c1ccccc1)P(=O)(OC)OC` (stereo unspecified), the TGI in [9], in [1], in [2], in [10], in test [3] and in [4] was > 100 µM throughout. The TGI in test [6], in test [7] and in [8] was > 100 µM each time.
Consider `c1ccc2sc(C3(N4CCCCCC4)CCCCC3)cc2c1`, for which the TGI in test [9] was determined as 36.8 µM; in test [1], 83.8 µM; in test [2], 33.3 µM; in [10] it was 43.9 µM; in test [3], 43.4 µM; in test [11], 71.1 µM. The TGI in [4] was 41.5 µM; in [5], 38.6 µM; in [6], > 100 µM; in test [7], 33.4 µM; in test [8] it was 45.7 µM.
On to `CC(=O)Nc1ccc2c3c(cc(O)c2c1)N(C(=O)CCCCCCC(=O)Nc1ccc2c4c(cc(O)c2c1)N(C(=O)OC(C)(C)C)CC4CCl)CC3CCl` (stereo unspecified), for which the TGI in test [9] was 0.0819 µM; in test [1], 0.465 µM; in test [2], 0.0259 µM; in [10] it was 1.08 µM; in [3], > 33.4 µM; in test [11] it was 0.305 µM. Further, the TGI is 0.346 µM in test [4]; 0.263 µM in test [5]; > 32.9 µM in test [6]; 0.0392 µM in test [7]; 0.219 µM in test [8].
In the case of `CC(=O)OCCn1c(Cc2ccc(Cl)cc2)nn(C(C)=O)c1=O`, the TGI in test [9], in [1], in [2], in test [10], in test [3] and in test [11] was > 100 µM in each case. Also, the TGI in test [4], in test [5], in test [6], in test [12] and in test [8] was > 100 µM in each case.
On to `CCCCc1c2c([n+]([O-])c3c1CCCC3)CCCC2`, for which the TGI in test [1] was 43.1 µM; in test [2], > 100 µM; in test [10] it was > 100 µM; in test [3], > 100 µM; in test [4], > 100 µM; in test [5], > 100 µM. In test [6], the TGI is > 100 µM.
For the compound `Cc1cccc2c(=O)c3cccc(CC(=O)O)c3oc12`, the TGI in test [9], in test [1], in test [2], in test [10], in [3] and in test [11] was > 100 µM in each case. Besides, the TGI in [4], in test [5], in [6], in test [12] and in [8] was > 100 µM each time.
For `CCOC(=O)/C(C#N)=c1/s/c(=C(\O)N/N=C/c2ccc(OC)cc2)c(=N)n1-c1ccccc1`, the TGI in test [1], in [2], in test [4], in [5], in test [6] and in [8] was > 100 µM throughout.
